Data set [1] has as its target T1, Insulin-like growth factor-I receptor (Homo sapiens, UniProt P08069). Nature of the data set: Recombinant kinase screen (Proqinase), IGF-I receptor. Format: biochemical. The note with it: recombinant human enzyme; single experiment, kinase screen by Proqinase. As for the experimental part: (§1) Full details for the generation of recombinant human KIT intracellular domain and other protein kinases (including Lyn, platelet derived growth factor receptor β, epidermal growth factor receptor, fibroblast growth factor receptor 1, Src, HCK, PYK, FES, Btk, Bmx, c-Ret, c-Fms, Syk, and c-Met) are provided in the Supplemental Methods (see Supporting Information; Methods S1). Experiments on ABL1, Akt1, protein kinase C-α, insulin-like growth factor receptor 1, and Pim1 were carried out by Proqinase (Germany). All other recombinant protein kinases were performed in-house using an enzyme-linked immunoassay; experimental details are provided in the Supplemental Methods (see Supporting Information; Methods S1).

A further data set deals with T2, c-Met (Homo sapiens, UniProt P08581).
T2 construct: c-Met (949–1398); 6xHN (N); made in house; host or cells: baculovirus, Sf9 insect cells
T2 sequence (P08581 949-1390 limits assumed): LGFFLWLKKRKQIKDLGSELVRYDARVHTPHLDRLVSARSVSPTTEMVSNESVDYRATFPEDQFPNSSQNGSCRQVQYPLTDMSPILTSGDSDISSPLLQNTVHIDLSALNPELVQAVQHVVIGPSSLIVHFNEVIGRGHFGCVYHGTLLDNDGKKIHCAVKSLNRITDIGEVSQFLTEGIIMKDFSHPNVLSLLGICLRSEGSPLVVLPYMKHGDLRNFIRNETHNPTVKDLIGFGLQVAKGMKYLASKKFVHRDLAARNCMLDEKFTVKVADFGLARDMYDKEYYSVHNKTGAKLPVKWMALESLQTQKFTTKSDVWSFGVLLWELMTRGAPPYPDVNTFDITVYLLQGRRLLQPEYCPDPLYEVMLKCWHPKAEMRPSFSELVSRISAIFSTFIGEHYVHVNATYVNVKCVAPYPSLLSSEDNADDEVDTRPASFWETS
Nature of the data set: Recombinant kinase ELISA assay, c-Met. The class given is biochemical. The note with it: recombinant human enzyme; ELISA-based assay, poly(Glu,Tyr 4:1) substrate. As for the experimental part:
as §1
(§2) The sequences encoding PDGF receptor β (residues 554–1106; GenBank accession no. BC032224), Lyn B (2–583; accession no. BC059394), fibroblast growth factor receptor 1 (572–959; accession no. BC018128), Src (2–536; accession no. BC011566), Btk (2–659; accession no. BC109079), Bmx (2–675; accession no. BC016652), c-Ret (713–1114; accession no. BC004257), c-Fms (538–972; BC047531), Syk (2–612; BC011399), Hck (2-526; accession no. BC014435), Fes (2-822; accession no. BC035357), PYK2 (2-1006; accession no. BC042599) and c-Met (949–1398; accession no. lifeseq3489592) were amplified by PCR from IMAGE cDNA clones purchased from Openbiosystems. […]

The next data set addresses T3, c-Ret (Homo sapiens, UniProt P07949).
T3 construct: c-Ret (713–1114; BC004257); 6xHN (N); made in house; host or cells: baculovirus, Sf9 insect cells
As to the kind of experiment: Recombinant kinase ELISA assay, c-Ret. Format: biochemical. The note with it: recombinant human enzyme; ELISA-based assay, poly(Glu,Tyr 4:1) substrate. On the procedure:
as §1, §2
A general note: In an ELISA, binding on a coated surface is turned into a signal by an enzyme label.

A further data set concerns the target T4, Syk (Homo sapiens, UniProt P43405).
T4 construct: Syk (2–612; BC011399); 6xHN (N); made in house; host or cells: baculovirus, Sf9 insect cells
As to the kind of experiment: Recombinant kinase ELISA assay, Syk. The class given is biochemical. The note with it: recombinant human enzyme; ELISA-based assay, poly(Glu,Tyr 4:1) substrate. On the procedure: as §1, §2

Data set [2] has as its target Epidermal growth factor receptor (Homo sapiens, UniProt P00533). As to the kind of experiment: Ba/F3 cell proliferation (WST-1), EGFR. The note with it: Ba/F3 cells expressing the enzyme, read-out: Cell-based assay IC50, Epidermal growth factor receptor. A general note: Formazan colour is commonly taken as a measure of viable cells.
The target of a further data set is Jak2 (Homo sapiens, UniProt O60674). As to the kind of experiment: Ba/F3 cell proliferation (WST-1), Jak2. The note with it: Ba/F3 cells expressing the enzyme, read-out: Cell-based assay IC50, Jak2.
Sequence of Jak2 (O60674 whole entry): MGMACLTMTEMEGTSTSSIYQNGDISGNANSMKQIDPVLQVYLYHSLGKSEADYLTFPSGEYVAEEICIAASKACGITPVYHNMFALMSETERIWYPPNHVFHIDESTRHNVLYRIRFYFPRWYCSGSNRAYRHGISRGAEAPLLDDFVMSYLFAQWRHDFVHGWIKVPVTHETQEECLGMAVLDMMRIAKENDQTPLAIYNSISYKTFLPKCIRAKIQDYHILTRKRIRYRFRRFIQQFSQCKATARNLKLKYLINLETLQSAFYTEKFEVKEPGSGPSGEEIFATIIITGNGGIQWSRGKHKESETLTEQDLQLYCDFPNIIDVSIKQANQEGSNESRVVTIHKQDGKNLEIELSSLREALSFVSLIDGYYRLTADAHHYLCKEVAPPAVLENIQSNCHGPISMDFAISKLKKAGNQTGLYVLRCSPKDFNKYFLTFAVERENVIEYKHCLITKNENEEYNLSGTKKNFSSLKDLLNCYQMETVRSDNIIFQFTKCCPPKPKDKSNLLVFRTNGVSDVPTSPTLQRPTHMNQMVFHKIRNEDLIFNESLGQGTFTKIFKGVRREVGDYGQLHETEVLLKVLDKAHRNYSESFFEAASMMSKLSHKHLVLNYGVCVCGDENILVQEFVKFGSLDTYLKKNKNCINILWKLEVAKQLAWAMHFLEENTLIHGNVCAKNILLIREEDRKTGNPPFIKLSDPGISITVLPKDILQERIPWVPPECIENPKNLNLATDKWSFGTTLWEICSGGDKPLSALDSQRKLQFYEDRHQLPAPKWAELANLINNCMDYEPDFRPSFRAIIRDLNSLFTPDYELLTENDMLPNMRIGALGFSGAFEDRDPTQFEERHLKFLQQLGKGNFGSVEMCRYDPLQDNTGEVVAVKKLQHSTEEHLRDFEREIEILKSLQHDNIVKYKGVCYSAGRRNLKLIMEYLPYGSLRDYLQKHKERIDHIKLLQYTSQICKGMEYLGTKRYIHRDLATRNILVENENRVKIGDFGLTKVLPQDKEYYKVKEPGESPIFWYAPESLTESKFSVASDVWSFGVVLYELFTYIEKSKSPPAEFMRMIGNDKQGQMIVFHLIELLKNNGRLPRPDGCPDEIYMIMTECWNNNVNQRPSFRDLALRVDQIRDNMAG
Another data set deals with Ba/F3 cells. As to the kind of experiment: IL-3-stimulated proliferation of Ba/F3 cells expressing human wild-type KIT. The class given is cell-based. The note with it: Mus musculus, BaF3, read-out: IC50 for inhibition of IL-3-stimulated proliferation. As for the experimental part:
Cells were grown for 48 hours at 37°C and then incubated with 10 µl/well of WST-1 reagent (Roche Applied Science, France) for 3 hours at 37°C. The amount of formazan dye formed was quantified by its absorbance at 450 nm using a scanning multiwell spectrophotometer (MultiSkan MS, Thermo-LabSystems, France). A blank well without cells was used as a background control for the spectrophotometer and all assays were performed in triplicate.

Data set [3] concerns human cord-blood-derived mast cells (CBMC). Nature of the data set: TNF-α release by IgE-anti IgE-activated CBMC (ELISA). Format: cell-based. The note with it: Mast cell, 4 hours of stimulation. As for the experimental part: (see Supporting Information; Methods S1). […] Assays of β-hexosaminidase release and TNF-α release were made by stimulating the CBMC with 1 µg/ml of goat anti-human IgE (Vector Laboratories) for 30 minutes or 4 hours, respectively. β-hexosaminidase was measured in the supernatant and in the sonicated cell pellets and its net release calculated. For TNF-α determination, the cell-free supernatants were collected by centrifugation and frozen at −80°C until determination of mediator content by the use of a specific ELISA kit according to manufacturer's instructions (Coulter, France). All assays were performed in duplicate and counts were repeated twice for each well.
Human CBMC were produced by long-term culture of CD34+ progenitors purified from normal cord-blood. […] At the beginning of the culture, rhIL-3 (1 ng/ml) (R&D Systems Europe, France) was also added to induce maximal expansion of haematopoietic progenitors. After 3 days the IL-3 was removed and 4 days later cells were transferred to a complete serum-free medium containing rmSCF at 100 ng/ml, which was renewed every 7 days thereafter. After 8 weeks in culture ≥99% of the cells were identified as being mast cells by May-Grünwald-Giemsa staining of cytocentrifuged samples.

Another data set relates to FMA3 cells. Nature of the data set: Mastocytoma cell line proliferation (WST-1), FMA3. Format: cell-based, murine. The note with it: Mus musculus, 48 h; 2 days; KIT juxtamembrane mutation. As for the experimental part:
(B) western blotting analysis of HMC-1α155 tyrosine phosphorylation. […] (D) Western blotting analysis of BMMC tyrosine phosphorylation. Cell proliferation was assessed by WST-1 colorimetric assay. […] MW = molecular weight.

The next data set deals with mouse bone marrow cells. Nature of the data set: Chromosome / mitotic apparatus damage in mouse bone marrow cells. The class given is in vivo. The note with it: two daily administrations at 437.5, 875, or 1750 mg/kg/day, our unpublished results.
Another data set has as its system mouse lymphoma. As to the kind of experiment: Mouse lymphoma assay. The note with it: our unpublished results. The class given is cell-based.
The subject of data set [4] is mastocytoma cell lines carrying KIT juxtamembrane mutants. As to the kind of experiment: Proliferation of mastocytoma cell lines carrying KIT juxtamembrane mutants (summary). Format: cell-based. The note with it: summary over cell lines.
The target of data set [5] is T1, Insulin-like growth factor-I receptor. Nature of the data set: Ba/F3 cell proliferation (WST-1), IGF-I receptor. The arrangement: expressed in transfected cells; host or cells: Ba/F3 (general description; not repeated for this kinase). The note with it: Ba/F3 cells expressing the enzyme, read-out: Cell-based assay IC50, Insulin-like growth factor-I receptor.

The structures appear in SMILES notation. Bounds are passed on as bounds.

T1 sequence (P08069 31-1367): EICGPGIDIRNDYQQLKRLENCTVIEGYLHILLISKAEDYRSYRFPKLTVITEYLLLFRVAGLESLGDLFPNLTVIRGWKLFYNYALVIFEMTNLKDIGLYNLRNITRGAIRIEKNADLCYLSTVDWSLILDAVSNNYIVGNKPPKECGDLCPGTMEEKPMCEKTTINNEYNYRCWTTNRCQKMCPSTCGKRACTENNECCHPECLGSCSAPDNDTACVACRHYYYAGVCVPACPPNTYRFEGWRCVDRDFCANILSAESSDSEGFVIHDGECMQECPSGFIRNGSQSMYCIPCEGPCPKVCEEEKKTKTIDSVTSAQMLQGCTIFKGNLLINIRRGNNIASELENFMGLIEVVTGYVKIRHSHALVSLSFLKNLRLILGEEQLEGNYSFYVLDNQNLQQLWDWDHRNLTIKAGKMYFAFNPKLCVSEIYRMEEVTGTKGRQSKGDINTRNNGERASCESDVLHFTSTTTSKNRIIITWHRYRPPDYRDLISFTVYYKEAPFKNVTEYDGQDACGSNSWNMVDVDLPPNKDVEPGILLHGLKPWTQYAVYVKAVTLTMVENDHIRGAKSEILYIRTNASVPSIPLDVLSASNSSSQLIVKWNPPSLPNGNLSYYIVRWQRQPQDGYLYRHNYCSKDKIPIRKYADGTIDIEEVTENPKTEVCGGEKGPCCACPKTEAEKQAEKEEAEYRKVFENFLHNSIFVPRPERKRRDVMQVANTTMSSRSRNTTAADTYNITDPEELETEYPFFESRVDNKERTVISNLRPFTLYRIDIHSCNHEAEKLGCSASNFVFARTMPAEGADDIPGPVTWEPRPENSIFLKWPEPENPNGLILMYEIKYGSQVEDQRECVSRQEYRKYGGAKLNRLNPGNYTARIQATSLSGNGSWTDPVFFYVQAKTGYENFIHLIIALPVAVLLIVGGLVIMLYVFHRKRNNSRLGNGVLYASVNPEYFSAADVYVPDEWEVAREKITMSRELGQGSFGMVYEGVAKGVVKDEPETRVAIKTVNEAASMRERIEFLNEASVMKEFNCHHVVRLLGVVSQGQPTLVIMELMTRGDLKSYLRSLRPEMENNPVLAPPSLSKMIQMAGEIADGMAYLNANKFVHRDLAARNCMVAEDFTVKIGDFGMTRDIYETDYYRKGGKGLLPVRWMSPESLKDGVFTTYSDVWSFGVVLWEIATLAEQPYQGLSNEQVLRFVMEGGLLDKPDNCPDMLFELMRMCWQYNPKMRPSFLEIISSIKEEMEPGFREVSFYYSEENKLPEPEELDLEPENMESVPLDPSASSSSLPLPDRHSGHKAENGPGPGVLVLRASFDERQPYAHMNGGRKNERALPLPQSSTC
Sequence of Epidermal growth factor receptor (P00533 25-1210): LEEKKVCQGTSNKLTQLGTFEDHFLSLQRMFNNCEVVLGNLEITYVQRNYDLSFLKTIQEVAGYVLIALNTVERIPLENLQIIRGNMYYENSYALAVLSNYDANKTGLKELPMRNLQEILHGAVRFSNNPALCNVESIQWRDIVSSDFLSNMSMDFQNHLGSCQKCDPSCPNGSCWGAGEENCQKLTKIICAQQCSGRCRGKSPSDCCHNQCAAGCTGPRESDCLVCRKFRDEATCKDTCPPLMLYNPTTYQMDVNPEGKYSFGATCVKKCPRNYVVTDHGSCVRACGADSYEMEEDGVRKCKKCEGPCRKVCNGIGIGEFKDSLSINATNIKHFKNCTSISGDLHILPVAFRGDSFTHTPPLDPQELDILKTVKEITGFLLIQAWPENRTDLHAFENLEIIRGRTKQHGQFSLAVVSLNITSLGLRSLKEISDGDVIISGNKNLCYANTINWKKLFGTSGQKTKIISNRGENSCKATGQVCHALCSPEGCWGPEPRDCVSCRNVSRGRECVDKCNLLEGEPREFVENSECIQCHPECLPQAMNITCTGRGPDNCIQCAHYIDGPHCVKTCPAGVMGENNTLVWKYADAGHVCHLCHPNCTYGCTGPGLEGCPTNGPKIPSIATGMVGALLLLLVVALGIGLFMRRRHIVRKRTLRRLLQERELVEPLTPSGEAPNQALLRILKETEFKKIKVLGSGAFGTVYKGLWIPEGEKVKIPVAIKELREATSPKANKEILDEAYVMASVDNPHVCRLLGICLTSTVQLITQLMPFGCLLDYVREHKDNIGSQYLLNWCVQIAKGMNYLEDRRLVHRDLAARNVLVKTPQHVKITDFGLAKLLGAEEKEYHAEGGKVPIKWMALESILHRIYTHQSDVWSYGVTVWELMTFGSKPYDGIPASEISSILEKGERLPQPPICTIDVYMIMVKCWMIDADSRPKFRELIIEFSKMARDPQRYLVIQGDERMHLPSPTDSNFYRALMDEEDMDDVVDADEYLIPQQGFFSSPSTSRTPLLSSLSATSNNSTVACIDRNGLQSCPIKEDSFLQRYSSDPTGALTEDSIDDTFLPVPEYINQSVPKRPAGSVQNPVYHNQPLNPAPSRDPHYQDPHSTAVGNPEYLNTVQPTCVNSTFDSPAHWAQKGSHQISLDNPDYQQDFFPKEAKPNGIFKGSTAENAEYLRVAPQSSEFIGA
T3 sequence (P07949 713-1072 isoform P07949-2): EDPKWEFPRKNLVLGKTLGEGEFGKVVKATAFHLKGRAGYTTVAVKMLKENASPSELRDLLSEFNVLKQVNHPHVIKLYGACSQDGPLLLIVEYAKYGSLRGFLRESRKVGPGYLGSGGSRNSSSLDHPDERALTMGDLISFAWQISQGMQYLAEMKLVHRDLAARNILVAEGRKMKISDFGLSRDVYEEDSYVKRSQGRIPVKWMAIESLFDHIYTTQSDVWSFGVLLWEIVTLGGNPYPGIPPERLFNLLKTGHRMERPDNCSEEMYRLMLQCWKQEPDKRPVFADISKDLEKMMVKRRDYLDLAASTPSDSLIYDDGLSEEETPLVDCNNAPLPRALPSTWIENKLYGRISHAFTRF

For orientation: inhibition means the change of the read-out against control, counted positive when it falls. Lower therefore signals a weak effect. On to `CS(=O)(=O)O.CS(=O)(=O)O.Cc1ccc(NC(=O)c2ccc(CN3CCN(C)CC3)cc2)cc1Nc1nc(-c2cccnc2)cs1` [masitinib, 4-(4-methylpiperazin-1-ylmethyl)-N-[4-methyl-3-(4-pyridin-3ylthiazol-2-ylamino)phenyl]benzamide-mesylate methane sulfonic acid salt], for which the IC50 in [1] is above 10 µM; on c-Met it was above 10 µM; at c-Ret it was above 10 µM; at Syk, above 10 µM; in [2], 7 ± 0.8 µM; at Jak2, 10 ± 0.8 µM. In addition, the IC50 in the data set on Ba/F3 cells is above 5 µM; in the data set with FMA3 cells, around 0.03 µM; in data set [4] it was 0.01 to 0.03 µM; in data set [5], 10 ± 0.67 µM. In addition, the inhibition at 0.1 µM in data set [3] (0.1 µM) turned out to be 16%. Moreover, 1 µM produced 40% inhibition in [3] (1.0 µM). Moreover, the inhibition at 10 µM in [3] (10 µM) worked out at 68%. Further, the “damage to chromosomes or the mitotic apparatus” value with mouse bone marrow cells was “does not cause damage to chromosomes or the mitotic apparatus”. For the same molecule, the “mutagenicity in a mouse lymphoma assay” value in the data set on mouse lymphoma is listed as “not mutagenic”.

Source of the values: PMC2746281 (PLoS ONE, 2009).
